The values that follow come from patent US9889104B2, “Agent for treating diabetes” (NISHIZAKI BIOINFORMATION RESEARCH INSTITUTE, priority 2014, dated 2018).

In experiment [1] the test system is type 2 diabetes model mouse (C57BL/KsJ-lepr^db/lepr^db mouse). Put plainly: Oral glucose tolerance test in type 2 diabetes model mouse. The settings on record: DCP-LA 0.001, 0.01, 0.1 mg/kg orally 30 min before glucose 2 g/kg, 0-90 min, FIG. 3B. The class given is in vivo. How it is done: As type 2 diabetes model mouse, C57BL/KsJ-lepr^db/lepr^db mouse (female, 8-week-old) (CLEA Japan; Tokyo, Japan) was used.
(§1) OGTT was performed using the mouse starved for 12 hr. Glucose (2 g/ml/kg body weight) was administered by gavage, and the time point thereof was taken as 0 h. DCP-LA (0, 0.001, 0.01, 0.1 mg/kg) was orally administered 30 min before administration of glucose. The blood (10 μl) was collected from the tail vein at the time points of 0, 30, 60, and 90 min, and each plasma sample which was labeled with ABEE and prepared from the obtained blood was loaded on high performance liquid chromatography (HPLC) system (LC-10ATvp; Shimadzu Co., Kyoto, Japan). The glucose concentration was calculated from a peak area/concentration analytical curve prepared using the standard glucose solution.

The subject of a further experiment is GLUT4. Put plainly: GLUT4 mobilization monitoring (Western blotting with anti-c-myc antibody). As to conditions: 100 nM DCP-LA, 20 min; c-myc signal in cellular membrane fraction/total cell; FIG. 2. The class given is cell-based. How it is done: (§2) 3T3L1-GLUT4myc fibroblast strain expressing GLUT4myc was used. The cells are constructed by inserting human c-MYC epitope (14 amino acids) into the first ectodomain. It is possible to track transport of GLUT4 onto cell membrane surface by using an antic-myc antibody.
The cells were cultured in Dulbecco's Modified Eagles Medium (DMEM) added with 10% (v/v) bovine serum, penicillin (final concentration, 100 U/ml) and streptomycin (final concentration, 0.1 mg/ml) in a humid environment under 5% CO2 and 95% air at 37° C. When the cells reached confluence (day 0), the medium was exchanged with DMEM added with 10% (v/v) fetal bovine serum (FBS), 1 μM dexamethasone, 0.5 mM 3-isobutyl-methyl-xanthine and 0.1 mg/ml insulin to allow for differentiation from fibroblast into adipocyte. The medium was exchanged with DMEM added with 10% (v/v) FBS on day 3, day 7 and day 11. On day 14, the cell differentiated into adipocyte were used for the experiment. […]
The protein concentration of each fraction was measured using BCA protein assay kit (Thermo Fisher Scientific, Waltham, Mass., USA). […] The immunoreactivity was detected using ECL kit (Invitrogen), and visualized using a chemical luminescence detection system (chemiluminescence detection system; GE Healthcare, Piscataway, N.J., USA). The signal density was measured using an image analysis software (Image Gauge software; GE Healthcare). […]

Experiment [2] concerns type 1 diabetes model mouse (STZ-treated C57BL/6J mouse). Put plainly: Oral glucose tolerance test in type 1 diabetes model mouse. Type of experiment: in vivo. The settings on record: DCP-LA 0.001, 0.01, 0.1 mg/kg orally 30 min before glucose 2 g/kg, 0-90 min, FIG. 3A. As for the experimental part: Type 1 diabetes model mouse was prepared by intraperitoneal administration of streptozotocin (STZ; 250 mg/kg) to C57BL/6J mouse (8-week-old) (Japan SLC Inc.; Shizuoka, Japan). After 4 days from the STZ administration, an oral glucose tolerance test (OGTT) was performed.
as §1

Experiment [3] deals with 3T3L1-GLUT4myc adipocytes. Put plainly: Glucose uptake assay in 3T3L1-GLUT4myc adipocytes. The settings on record: 2 hr. The class given is cell-based. How it is done:
as §2
The cells were cultured in Dulbecco's Modified Eagles Medium (DMEM) added with 10% (v/v) bovine serum, penicillin (final concentration, 100 U/ml) and streptomycin (final concentration, 0.1 mg/ml) in a humid environment under 5% CO2 and 95% air at 37° C. […]
3T3L1-GLUT4myc adipocytes were incubated in Krebs-Ringer-HEPES buffer [136 mM NaCl, 4.7 mM KCl, 1.25 mM CaCl2, 1.25 mM MgSO4 and 20 mM HEPES, pH 7.5] containing 0.2% (w/v) bovine serum albumin (BSA) and added with 10 mM glucose at 37° C. for […]. […] ABEE-labeled glucose was detected using a fluorescence detector at an excitation wavelength 305 nm and a fluorescence wavelength 360 nm. The amount of glucose uptaken into the cells after incubation for 2 hr is calculated by subtracting the extracellular glucose concentration from the initial extracellular glucose concentration (10 mM).
3T3L1-GLUT4myc adipocytes were incubated in glucose-containing (10 mM) PBS in the presence or absence of a given concentration of DCP-LA for 2 hr, and extracellular glucose concentration was measured by HPLC. […]

Take `CCCCCC1CC1CC1CC1CCCCCCCC(=O)O` (centres unmarked) [DCP-LA, 8-[2-(2-pentyl-cyclopropylmethyl)-cyclopropyl]-octanoic acid]: the blood glucose level entry in experiment [1] and in experiment [2] was “dose-dependently lower the blood glucose level” in each case. The “transport of GLUT4 onto the cellular membrane” value in the experiment with GLUT4 was “not promoted significantly”. In addition, the “sugar uptake promoting action in the presence of PKCε inhibitor GF109203X” value in experiment [3] (0.1 μM DCP-LA with 0.1 μM GF109203X, FIG. 1B) is recorded as “not inhibited”. Further, in experiment [3] (3T3L1-GLUT4myc adipocytes, 10 mM glucose PBS, given concentrations of DCP-LA, HPLC, FIG. 1A), the “glucose uptake into the cells” value is recorded as “promote sugar uptake into the adipocytes in a bell-shaped concentration-dependent manner”.
